Test results as given in the kinase profiling compilation of Christmann-Franck et al. (2016).

How the values were obtained:
Assay in all cases: KINOMEscan competition binding
Settings in all cases: compound 1.0 µM
[1] = molecular target: MAP4K1 (human) (UniProt Q92918)
[2] = molecular target: MAP2K4 (human) (UniProt P45985)
[3] = molecular target: BRSK2 (human) (UniProt Q8IWQ3)
[4] = test system: FLT3 (human), P36888 [N841I]
[5] = molecular target: EPHA2 (human) (UniProt P29317)
[6] = molecular target: CDK18 (human) (UniProt Q07002)
[7] = molecular target: MAP3K6 (human) (UniProt O95382)
[8] = molecular target: FGFR3 (human) (UniProt P22607)
[9] = molecular target: PKMYT1 (human) (UniProt Q99640)
[10] = test system: EGFR (human), P00533 [P753S; 747-752 del]
[11] = molecular target: CSNK1G2 (human) (UniProt P78368)
Chain of CSNK1G2 (human) (P78368 whole entry, looked up): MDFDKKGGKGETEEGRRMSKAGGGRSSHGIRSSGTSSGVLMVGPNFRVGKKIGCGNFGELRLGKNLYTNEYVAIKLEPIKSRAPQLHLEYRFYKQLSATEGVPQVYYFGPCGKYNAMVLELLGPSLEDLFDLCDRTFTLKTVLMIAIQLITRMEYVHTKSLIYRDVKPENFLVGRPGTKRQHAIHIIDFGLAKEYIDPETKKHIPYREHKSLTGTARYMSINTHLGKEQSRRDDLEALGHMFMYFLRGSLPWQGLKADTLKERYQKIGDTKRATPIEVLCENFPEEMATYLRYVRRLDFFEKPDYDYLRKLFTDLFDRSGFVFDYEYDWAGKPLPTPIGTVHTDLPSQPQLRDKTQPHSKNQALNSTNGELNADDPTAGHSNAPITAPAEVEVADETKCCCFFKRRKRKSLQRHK

[12] = molecular target: PI4KB (human) (UniProt Q9UBF8)
[13] = molecular target: MAP4K3 (human) (UniProt Q8IVH8)
[14] = molecular target: HUNK (human) (UniProt P57058)
Chain of HUNK (human) (P57058 whole entry, looked up): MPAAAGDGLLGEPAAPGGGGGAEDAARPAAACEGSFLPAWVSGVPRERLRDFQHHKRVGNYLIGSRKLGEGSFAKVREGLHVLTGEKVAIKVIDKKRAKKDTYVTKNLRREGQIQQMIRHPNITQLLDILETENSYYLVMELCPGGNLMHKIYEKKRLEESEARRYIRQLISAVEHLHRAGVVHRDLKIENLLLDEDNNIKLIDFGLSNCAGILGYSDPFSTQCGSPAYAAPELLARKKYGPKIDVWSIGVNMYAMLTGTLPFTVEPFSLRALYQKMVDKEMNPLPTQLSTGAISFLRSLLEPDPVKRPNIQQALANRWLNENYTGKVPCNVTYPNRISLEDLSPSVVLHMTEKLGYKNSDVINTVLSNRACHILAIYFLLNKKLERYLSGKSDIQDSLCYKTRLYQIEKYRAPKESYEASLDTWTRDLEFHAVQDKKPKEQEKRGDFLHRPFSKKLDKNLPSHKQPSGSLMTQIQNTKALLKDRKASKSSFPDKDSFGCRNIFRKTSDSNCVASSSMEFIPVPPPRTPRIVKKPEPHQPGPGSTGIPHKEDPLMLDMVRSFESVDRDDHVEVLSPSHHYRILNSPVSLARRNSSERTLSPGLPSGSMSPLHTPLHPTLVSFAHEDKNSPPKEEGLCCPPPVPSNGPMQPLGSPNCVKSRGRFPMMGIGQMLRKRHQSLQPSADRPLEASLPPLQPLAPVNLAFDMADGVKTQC

[15] = molecular target: MARK4 (human) (UniProt Q96L34)
[16] = test system: EGFR (human), P00533 [752-759 del]
[17] = molecular target: CDKL2 (human) (UniProt Q92772)
[18] = test system: EIF2AK4 KD2 (human), Q9P2K8 [S808G]
[19] = test system: EGFR (human), P00533 [T790M]
[20] = molecular target: MAPKAPK5 (human) (UniProt Q8IW41)
[21] = test system: ABL1 (human), P00519 [E255K]
[22] = molecular target: MAPK9 (human) (UniProt P45984)
[23] = molecular target: ADCK3 (human) (UniProt Q8NI60)
[24] = molecular target: SGK3 (human) (UniProt Q96BR1)
[25] = molecular target: INSR (human) (UniProt P06213)
[26] = molecular target: RPS6KA5 KD1 (human) (UniProt O75582)
[27] = molecular target: CDC42BPB (human) (UniProt Q9Y5S2)
Chain of CDC42BPB (human) (Q9Y5S2 whole entry, looked up): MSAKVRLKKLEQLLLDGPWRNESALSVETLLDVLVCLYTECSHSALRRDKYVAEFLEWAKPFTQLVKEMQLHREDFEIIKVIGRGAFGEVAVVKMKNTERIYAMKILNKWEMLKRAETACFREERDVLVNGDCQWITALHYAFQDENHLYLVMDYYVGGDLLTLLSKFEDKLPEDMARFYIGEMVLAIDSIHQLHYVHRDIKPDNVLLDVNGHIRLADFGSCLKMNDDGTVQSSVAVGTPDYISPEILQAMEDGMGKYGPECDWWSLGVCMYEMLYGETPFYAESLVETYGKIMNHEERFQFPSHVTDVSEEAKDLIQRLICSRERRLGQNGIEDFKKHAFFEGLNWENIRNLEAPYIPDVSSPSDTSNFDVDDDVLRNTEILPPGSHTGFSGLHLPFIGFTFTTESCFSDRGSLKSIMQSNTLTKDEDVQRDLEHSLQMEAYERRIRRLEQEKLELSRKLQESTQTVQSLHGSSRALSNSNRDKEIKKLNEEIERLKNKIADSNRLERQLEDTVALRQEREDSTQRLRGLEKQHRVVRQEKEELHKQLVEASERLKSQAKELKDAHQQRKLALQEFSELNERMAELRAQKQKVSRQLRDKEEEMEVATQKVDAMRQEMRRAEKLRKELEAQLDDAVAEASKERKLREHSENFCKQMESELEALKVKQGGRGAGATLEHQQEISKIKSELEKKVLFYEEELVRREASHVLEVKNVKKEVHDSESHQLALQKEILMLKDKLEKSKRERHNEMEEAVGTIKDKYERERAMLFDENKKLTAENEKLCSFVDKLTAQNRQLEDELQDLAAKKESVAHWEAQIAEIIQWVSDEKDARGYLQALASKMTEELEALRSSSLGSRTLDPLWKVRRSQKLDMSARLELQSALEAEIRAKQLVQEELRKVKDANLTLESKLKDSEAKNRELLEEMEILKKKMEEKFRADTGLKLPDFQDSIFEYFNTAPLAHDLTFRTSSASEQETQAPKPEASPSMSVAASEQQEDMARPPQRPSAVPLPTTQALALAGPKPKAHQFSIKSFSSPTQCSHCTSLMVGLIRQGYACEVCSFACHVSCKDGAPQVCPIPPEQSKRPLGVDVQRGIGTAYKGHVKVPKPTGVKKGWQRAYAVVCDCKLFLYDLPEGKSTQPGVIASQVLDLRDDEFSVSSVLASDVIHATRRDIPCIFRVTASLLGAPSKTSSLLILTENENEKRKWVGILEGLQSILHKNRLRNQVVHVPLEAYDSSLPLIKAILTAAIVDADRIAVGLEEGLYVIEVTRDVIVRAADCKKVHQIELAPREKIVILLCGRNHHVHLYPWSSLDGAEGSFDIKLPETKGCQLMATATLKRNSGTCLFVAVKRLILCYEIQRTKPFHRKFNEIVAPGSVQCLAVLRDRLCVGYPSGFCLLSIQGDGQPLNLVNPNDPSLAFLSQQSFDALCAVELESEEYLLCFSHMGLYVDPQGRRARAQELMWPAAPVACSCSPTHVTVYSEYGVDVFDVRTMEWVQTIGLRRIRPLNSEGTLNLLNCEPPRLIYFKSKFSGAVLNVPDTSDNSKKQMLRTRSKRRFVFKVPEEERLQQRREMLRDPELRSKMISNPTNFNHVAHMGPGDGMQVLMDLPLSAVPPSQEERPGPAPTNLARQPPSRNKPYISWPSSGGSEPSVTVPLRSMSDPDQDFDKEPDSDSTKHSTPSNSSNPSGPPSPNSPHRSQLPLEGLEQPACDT

[28] = molecular target: LCK (human) (UniProt P06239)
Chain of LCK (human) (P06239 whole entry, looked up): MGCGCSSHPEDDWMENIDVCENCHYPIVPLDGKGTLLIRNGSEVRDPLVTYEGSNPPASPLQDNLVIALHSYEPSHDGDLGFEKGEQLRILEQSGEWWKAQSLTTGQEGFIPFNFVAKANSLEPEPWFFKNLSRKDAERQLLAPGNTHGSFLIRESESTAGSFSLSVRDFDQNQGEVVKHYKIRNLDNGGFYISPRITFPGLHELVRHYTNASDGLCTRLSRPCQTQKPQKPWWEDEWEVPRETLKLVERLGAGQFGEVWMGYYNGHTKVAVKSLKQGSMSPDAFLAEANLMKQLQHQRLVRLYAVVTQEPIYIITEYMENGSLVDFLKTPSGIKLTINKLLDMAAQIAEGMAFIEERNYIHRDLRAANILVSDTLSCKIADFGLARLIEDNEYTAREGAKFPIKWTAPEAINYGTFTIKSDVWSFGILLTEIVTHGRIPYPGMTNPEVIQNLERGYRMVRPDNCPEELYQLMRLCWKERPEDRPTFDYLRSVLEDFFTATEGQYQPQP

[29] = molecular target: CDC42BPG (human) (UniProt Q6DT37)
[30] = molecular target: TAOK2 (human) (UniProt Q9UL54)
[31] = molecular target: MAP2K5 (human) (UniProt Q13163)
Chain of MAP2K5 (human) (Q13163 whole entry, looked up): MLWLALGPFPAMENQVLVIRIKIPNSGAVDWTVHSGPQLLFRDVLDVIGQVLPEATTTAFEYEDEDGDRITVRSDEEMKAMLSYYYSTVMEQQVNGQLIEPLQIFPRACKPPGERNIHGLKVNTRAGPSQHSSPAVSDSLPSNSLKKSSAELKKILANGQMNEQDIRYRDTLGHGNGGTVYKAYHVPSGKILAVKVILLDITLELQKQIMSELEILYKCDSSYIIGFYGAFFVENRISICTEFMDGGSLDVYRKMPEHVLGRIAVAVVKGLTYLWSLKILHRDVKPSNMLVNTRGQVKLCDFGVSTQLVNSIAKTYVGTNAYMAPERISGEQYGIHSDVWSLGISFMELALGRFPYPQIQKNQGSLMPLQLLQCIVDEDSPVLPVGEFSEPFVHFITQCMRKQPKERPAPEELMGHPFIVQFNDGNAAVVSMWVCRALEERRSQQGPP

[32] = test system: FLT3 (human), P36888 [K663Q]
[33] = molecular target: MARK2 (human) (UniProt Q7KZI7)
[34] = molecular target: CDK11B (human) (UniProt P21127)
[35] = test system: PIK3CA (human), P42336 [C420R]
Chain of PIK3CA (human), P42336 [C420R] (P42336 whole entry C420R, looked up): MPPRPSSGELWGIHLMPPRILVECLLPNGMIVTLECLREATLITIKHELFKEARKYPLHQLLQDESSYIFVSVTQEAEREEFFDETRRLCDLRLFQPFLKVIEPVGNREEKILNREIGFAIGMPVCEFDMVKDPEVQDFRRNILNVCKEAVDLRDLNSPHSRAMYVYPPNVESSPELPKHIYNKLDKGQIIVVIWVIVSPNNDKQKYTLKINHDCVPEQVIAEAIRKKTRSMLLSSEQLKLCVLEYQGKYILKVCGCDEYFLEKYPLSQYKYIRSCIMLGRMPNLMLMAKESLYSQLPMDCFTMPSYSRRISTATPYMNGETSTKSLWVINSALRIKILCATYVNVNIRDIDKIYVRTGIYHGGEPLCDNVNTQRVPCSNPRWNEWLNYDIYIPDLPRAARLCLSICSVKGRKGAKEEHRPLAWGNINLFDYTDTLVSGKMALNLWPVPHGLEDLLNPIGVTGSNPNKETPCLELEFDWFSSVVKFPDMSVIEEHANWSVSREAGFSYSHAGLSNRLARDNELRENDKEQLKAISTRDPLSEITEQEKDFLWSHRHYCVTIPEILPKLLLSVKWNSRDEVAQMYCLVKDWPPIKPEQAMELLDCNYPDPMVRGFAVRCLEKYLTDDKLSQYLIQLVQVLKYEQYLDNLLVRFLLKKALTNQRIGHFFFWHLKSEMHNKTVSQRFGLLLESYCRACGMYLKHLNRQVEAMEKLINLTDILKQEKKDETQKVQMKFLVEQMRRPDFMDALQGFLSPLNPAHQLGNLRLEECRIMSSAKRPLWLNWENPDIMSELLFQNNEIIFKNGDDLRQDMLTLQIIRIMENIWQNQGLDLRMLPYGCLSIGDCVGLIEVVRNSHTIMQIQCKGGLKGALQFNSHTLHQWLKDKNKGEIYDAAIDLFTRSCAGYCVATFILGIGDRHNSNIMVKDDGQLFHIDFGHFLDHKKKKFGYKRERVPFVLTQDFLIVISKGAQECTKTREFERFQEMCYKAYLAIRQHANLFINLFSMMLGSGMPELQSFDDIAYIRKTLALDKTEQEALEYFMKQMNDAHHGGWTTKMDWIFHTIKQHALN

[36] = molecular target: BMPR1B (human) (UniProt O00238)
[37] = molecular target: PRPF4B (human) (UniProt Q13523)
[38] = molecular target: CAMK1G (human) (UniProt Q96NX5)
[39] = molecular target: MAK (human) (UniProt P20794)
[40] = molecular target: CLK4 (human) (UniProt Q9HAZ1)
[41] = molecular target: RPS6KA4 KD2 (human) (UniProt O75676)
[42] = molecular target: RET (human) (UniProt P07949)

CN(C)C/C=C/C(=O)Nc1cccc(C(=O)Nc2ccc(Nc3nccc(/C(C#N)=C4\Nc5ccccc5S4)n3)cc2)c1
kinase still bound, per cent of control [1]: 100%
kinase still bound, per cent of control [2]: 100%
kinase still bound, per cent of control [3]: 100%
kinase still bound, per cent of control [4]: 51%
kinase still bound, per cent of control [5]: 100%
kinase still bound, per cent of control [6]: 100%
kinase still bound, per cent of control [7]: 100%
kinase still bound, per cent of control [8]: 100%
kinase still bound, per cent of control [9]: 100%
kinase still bound, per cent of control [10]: 100%
kinase still bound, per cent of control [11]: 22%
kinase still bound, per cent of control [12]: 65%
kinase still bound, per cent of control [13]: 91%
kinase still bound, per cent of control [14]: 99%
kinase still bound, per cent of control [15]: 100%
kinase still bound, per cent of control [16]: 95%
kinase still bound, per cent of control [17]: 28%
kinase still bound, per cent of control [18]: 55%
kinase still bound, per cent of control [19]: 80%
kinase still bound, per cent of control [20]: 100%
kinase still bound, per cent of control [21]: 100%
kinase still bound, per cent of control [22]: 0.05%
kinase still bound, per cent of control [23]: 82%
kinase still bound, per cent of control [24]: 97%
kinase still bound, per cent of control [25]: 100%
kinase still bound, per cent of control [26]: 100%
kinase still bound, per cent of control [27]: 100%
kinase still bound, per cent of control [28]: 100%
kinase still bound, per cent of control [29]: 88%
kinase still bound, per cent of control [30]: 100%
kinase still bound, per cent of control [31]: 100%
kinase still bound, per cent of control [32]: 37%
kinase still bound, per cent of control [33]: 100%
kinase still bound, per cent of control [34]: 70%
kinase still bound, per cent of control [35]: 100%
kinase still bound, per cent of control [36]: 100%
kinase still bound, per cent of control [37]: 100%
kinase still bound, per cent of control [38]: 100%
kinase still bound, per cent of control [39]: 93%
kinase still bound, per cent of control [40]: 64%
kinase still bound, per cent of control [41]: 100%
kinase still bound, per cent of control [42]: 91%

CN(C)C/C=C/C(=O)Nc1cccc(C(=O)Nc2ccc(Nc3nccc(-c4cccnc4)n3)cc2)c1
kinase still bound, per cent of control [1]: 79%
kinase still bound, per cent of control [2]: 78%
kinase still bound, per cent of control [3]: 98%
kinase still bound, per cent of control [4]: 18%
kinase still bound, per cent of control [5]: 86%
kinase still bound, per cent of control [6]: 100%
kinase still bound, per cent of control [7]: 100%
kinase still bound, per cent of control [8]: 78%
kinase still bound, per cent of control [9]: 100%
kinase still bound, per cent of control [10]: 99%
kinase still bound, per cent of control [11]: 12%
kinase still bound, per cent of control [12]: 71%
kinase still bound, per cent of control [13]: 38%
kinase still bound, per cent of control [14]: 65%
kinase still bound, per cent of control [15]: 40%
kinase still bound, per cent of control [16]: 81%
kinase still bound, per cent of control [17]: 21%
kinase still bound, per cent of control [18]: 80%
kinase still bound, per cent of control [19]: 91%
kinase still bound, per cent of control [20]: 68%
kinase still bound, per cent of control [21]: 43%
kinase still bound, per cent of control [22]: 0%
kinase still bound, per cent of control [23]: 58%
kinase still bound, per cent of control [24]: 100%
kinase still bound, per cent of control [25]: 100%
kinase still bound, per cent of control [26]: 100%
kinase still bound, per cent of control [27]: 93%
kinase still bound, per cent of control [28]: 100%
kinase still bound, per cent of control [29]: 73%
kinase still bound, per cent of control [30]: 54%
kinase still bound, per cent of control [31]: 6.8%
kinase still bound, per cent of control [32]: 48%
kinase still bound, per cent of control [33]: 69%
kinase still bound, per cent of control [34]: 71%
kinase still bound, per cent of control [35]: 100%
kinase still bound, per cent of control [36]: 43%
kinase still bound, per cent of control [37]: 93%
kinase still bound, per cent of control [38]: 78%
kinase still bound, per cent of control [39]: 5.6%
kinase still bound, per cent of control [40]: 16%
kinase still bound, per cent of control [41]: 65%
kinase still bound, per cent of control [42]: 100%
